# Entries after “also recorded” stand apart in the source; their conditions may differ.
# Key:
# [1] = system: PC-12 cells; test: Neurite outgrowth in PC-12 cells; type: cell-based
# Protocol: PC-12 cells were maintained at 37° C., 5% CO2, in Dulbecco's modified Eagle medium (DMEM) supplemented with 10% heat-inactivated horse serum and 5% heat-inactivated fetal bovine serum. For differentiation in NGF, cells were plated at 1×10^5 in 35 mm culture wells coated with rat tail collagen at 5 μg/cm^2, and allowed to attach before replacing the media with DBMEM supplemented with 2% fetal horse serum, 1% fetal calf serum, NGF and/or FK506 or rapamycin. For quantitation of neurite outgrowth, random photographs were made (3-4 per well), and process bearing neurons were counted with processes being greater than 5 μm. Experimental conditions were unknown by the photographer and cell counter. Four separate experiments were performed in duplicate for each data point presented. Neurites were identified and counted from approximately 100 cells per photograph. Thus, neurites from 1200-1600 cells were counted per data point.
# [2] = system: dorsal root ganglia; test: Neurite/axon outgrowth in dorsal root ganglia explant cultures; type: cell-based, rat; conditions: for time at which growth begins to plateau / time by which some outgrowth is evident: all concentrations
# Protocol: Stage E16 embryos were removed from pregnant Sprague-Dawley rats and the dorsal root ganglia dissected. Whole ganglia explants were cultured in collagencoated 35 mm dishes (Falcon) using N2 medium (Dulbecco's Modified Eagle medium and Ham's F12 medium mixed 1:1 and supplemented with progesterone, selenium, insulin, putrescine, glucose, and penicillin-streptomycin) at 37° C. in a 15% CO2 environment. Sensory ganglia were treated with various concentrations of NGF and/or FK506 or rapamycin or anti-NGF antibody. Ganglia were observed every 2-3 days under phase-contrasting using an Olympus IMT-2 inverted microscope, and measurements of axon length were made. The axonal field of each ganglion was divided into four quadrants, and the length of the longest axons in each quadrant was measured in microns using an eye-piece micrometer. The average of these measurements was taken as the axon length for the ganglion.
# [3] = target: T1, FKBP (Rattus norvegicus, UniProt Q62658); test: [3H]FK506 autoradiography on dorsal root ganglia cultures; type: binding; conditions: 1 μM unlabeled FK506, 1 nM [3H]FK506
# Protocol: For [^3 H]FK506 autoradiography, dorsal root ganglia cultures were grown on chamber slides coated with collagen, 5 μg/cm^2. Cultures were fixed on the slide with ice cold 4.0% freshly depolymerized paraformaldehyde in 0.1 M sodium phosphate buffer, pH 7.4, for 1 hr, then washed two times with phosphate buffered saline. Fixed cultures were labeled with [^3 H]FK506 by pre-incubating the slides in a buffer consisting of 50 mM Hepes, 2 mg/ml bovine serum albumin, 0.02% Tween-20 pH 7.4. This was followed by incubation in the same assay buffer containing 1 nM [^3 H]FK506. Non-specific binding was determined by adding 1 μM unlabeled FK506. The slides were then rinsed 4×5 min prior to drying, and juxtaposed to tritium-sensitive film for 10 days.
# [4] = target: T1, FKBP; test: [3H]FK506 binding to PC-12 cell homogenates; set-up: endogenous in cells; host or cells: PC-12 cells; conditions: for [3H]FK506 binding following NGF treatment: PC-12 cells, NGF 50 ng/ml
# Protocol: Levels of FKBP in PC-12 cells were obtained from Scatchard analysis of [^3 H]FK506 binding curves. Cultures were scraped from the culture wells and homogenized in 10 volumes of 50 mM Tris-HCl, pH 7.4, 1 mM EDTA, 100 μg/ml phenylmethylsulfonylfluoride and centrifuged at 40,000×g for 20 min at 4° C. Protein was determined by the Coomassie blue dye binding assay using bovine serum albumin as a standard. Binding of 250 pM [^3 H]dihydro FK506 (86.5 Ci/mmol, DuPont/NEN) was assessed for samples containing 5 μg soluble protein in a final volume of 0.4 ml assay buffer containing 50 mM Tris-HCl, pH 7.4, 2 mg/ml BSA and varying concentrations of unlabeled FK506. After 60 min incubation at 25° C., 0.35 ml was layered over a 0.8 ml column of LH-20 Sephadex (Pharmacia LKB), pre-equilibrated with assay buffer. The column was further washed with 0.4 ml of assay buffer, the eluates collected, mixed with Formula 963 (DuPont/NEN) and counted in a Beckman scintillation counter. Specific binding was determined by subtracting binding obtained in the presence of 1 μM unlabeled FK506 from total [^3 H]FK506 bound.
# [5] = target: T1, FKBP; test: [3H]FK506 binding in rat tissues (Table 1A); set-up: from tissue; host or cells: rat sciatic nerve, cerebral cortex, thymus, spleen; neonatal rat forebrain and growth cones
# Description: If FKBP were physiologically associated with neuronal process extension in the actions of GAP-43, then one might anticipate substantial levels of FKBP in peripheral nerve. Accordingly, we measured [^3 H]FK-506 binding in rat sciatic nerve, as well as in growth cones isolated from 2-day-old rat pups, and compared values with those of the cerebral cortex and several peripheral tissues.
# For axon transport experiments, classic ligature techniques were used following the methods of Tetzlaff et al. One week following sciatic nerve crush two collection ligatures (510 sutures) were placed on the nerve approximately 10 mm apart with the distal most ligature positioned 10 mm proximal to the initial crush sight. Six hours later, 5-3 mm segments of the nerve were collected from regions proximal to, distal to, and between the collection ligatures as illustrated in FIG. 5. The nerve segments were prepared for [^3 H]FK-506 binding assays by homogenizing in 10 volumes of 50 mM Tris-HCl, pH 7.4. Homogenates were centrifuged at 15,000×g for 20 min at 4° C., and supernatants were collected and assayed for total protein concentration using the Coomassie blue dye binding assay (Pearce). [^3 H]FK-506 binding was carried out as described (4) on aliquots containing 2 ug of total soluble protein in a final volume of 0.4 ml assay buffer consisting of 50 mM Tris-HCl, pH 7.4, 2 mg/ml bovine serum albumin, 250 pM [^3 H]FK-506, and varying concentrations of unlabeled FK-506. Following incubation at 25° C. for 60 min, 0.35 ml was layered over a 0.8 ml column of LH-20 Sephadex (Pharmacia LKB) and washed with 0.4 ml of assay buffer. The eluates were collected and counted in a scintillation counter.
# T1 sequence (Q62658 whole entry): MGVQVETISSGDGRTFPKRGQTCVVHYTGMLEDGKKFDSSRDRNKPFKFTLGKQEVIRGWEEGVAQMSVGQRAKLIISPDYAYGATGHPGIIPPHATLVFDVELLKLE
compound,measurement,setting,value
C=CC[C@@H]1/C=C(\C)C[C@H](C)C[C@H](OC)[C@H]2O[C@@](O)(C(=O)C(=O)N3CCCC[C@H]3C(=O)O[C@H](/C(C)=C/[C@@H]3CC[C@@H](O)[C@H](OC)C3)[C@H](C)[C@@H](O)CC1=O)[C@H](C)C[C@@H]2OC [FK506],kind of effect on neuritic processes,[1],primarily increases neurite length
same,reduction of the NGF concentration needed to elicit maximal outgrowth,[1]; FK506 100 nM,20-50 fold
same,effect on NGF-stimulated neurite outgrowth,"[1]; FK506 100 nM, 48 hr",markedly augments the effect of NGF
same,additional neurite outgrowth at maximal NGF,"[1]; FK506 100 nM, NGF 10-100 ng/ml",fails to produce additional neurite outgrowth
same,neurite outgrowth in the absence of NGF,[1]; no NGF,fails to elicit neurite outgrowth; also recorded: fails to stimulate neurite outgrowth
same,EC50,"[1]; with NGF 1 ng/ml, 48 hr, read-out: half maximal effects on neurite outgrowth",~100 pM
same,FK506 concentration eliciting the same maximal outgrowth as 50 ng/ml NGF,"[1]; with submaximal NGF 1 ng/ml, 48 hr",1 nM
same,neurite outgrowth compared with no added growth factor,[2]; FK506 1 pM,greater than in its absence
same,neurite/axon outgrowth,[2]; FK506 1 μM alone,produces a similar neurotrophic effect; also recorded: abundant axon outgrowth
same,neurite outgrowth,[2]; FK506 0.1 and 10 nM,Progressively greater outgrowth
same,concentration required for maximal outgrowth,[2]; FK506 alone,1 µM
same,lowest concentration producing a noticeable increase in growth,[2]; FK506 alone,1 nM
same,lowest concentration producing detectable augmentation of outgrowth,[2]; FK506 alone,1 pM
same,time at which growth begins to plateau,[2],5 to 6 days
same,time by which some outgrowth is evident,[2],≤ 1 days
same,displacement of [3H]FK506 autoradiographic grains,[3],autoradiographic grains are abolished
same,IC50,"[4]; untreated PC-12 cell homogenates, 250 pM radioligand, read-out: Fifty percent inhibition of [3H]FK506 binding",1000 to 2000 pM
[3H]CC([3H])C[C@@H]1/C=C(\C)C[C@H](C)C[C@H](OC)[C@H]2O[C@@](O)(C(=O)C(=O)N3CCCC[C@H]3C(=O)O[C@H](/C(C)=C/[C@@H]3CC[C@@H](O)[C@H](OC)C3)[C@H](C)[C@@H](O)CC1=O)[C@H](C)C[C@@H]2OC (some centres unmarked) [[^3 H]FK506],[3H]FK506 binding Bmax,"[5]; adult rat, cerebral cortex",48.0 pmol/mg protein
same,[3H]FK506 binding Bmax,"[5]; adult rat, sciatic nerve",22.1 pmol/mg protein
same,[3H]FK506 binding Bmax,"[5]; adult rat, spleen",8.0 pmol/mg protein
same,[3H]FK506 binding Bmax,"[5]; adult rat, thymus",9.5 pmol/mg protein
same,[3H]FK506 binding Bmax,"[5]; neonatal rat, forebrain",25.5 pmol/mg protein
same,[3H]FK506 binding Bmax,"[5]; neonatal rat, growth cones",10.2 pmol/mg protein
CO[C@H]1C[C@@H]2CC[C@@H](C)[C@@](O)(O2)C(=O)C(=O)N2CCCC[C@H]2C(=O)O[C@H]([C@H](C)C[C@@H]2CC[C@@H](O)[C@H](OC)C2)CC(=O)[C@H](C)/C=C(\C)[C@@H](O)[C@@H](OC)C(=O)[C@H](C)C[C@H](C)/C=C/C=C/C=C/1C [rapamycin],kind of effect on neuritic processes,[1],augments the number of processes as well as their length
same,combined effect of FK506 and rapamycin,[1]; FK506 plus rapamycin,additive
same,neurite outgrowth,[1]; rapamycin 1 nM,major neurite outgrowth
same,blockade of the neurotrophic actions of FK506,[1]; rapamycin 1 μM,fails to block the neurotrophic actions of FK506
same,blockade of FK506 effect on outgrowth,[2]; rapamycin 1 μM with FK506 1 μM,completely blocks the effects of FK506; also recorded: completely inhibits axon outgrowth in the presence of FK506
nerve growth factor [NGF],concentration for maximal augmentation of neurite outgrowth,[1]; NGF alone,50 to 100 ng/mL
same,NGF concentration for half maximal outgrowth,[1]; in the absence of FK506,5 ng/mL
same,neurite/axon outgrowth,[2]; NGF 100 ng/ml,markedly increases the number and length of ganglia processes; also recorded: abundant axon outgrowth
same,time at which growth begins to plateau,[2],5 to 6 days
same,time by which some outgrowth is evident,[2],≤ 1 days
same,[3H]FK506 binding following NGF treatment,[4],increases markedly
same,[3H]FK506 binding following NGF treatment,[4]; by 20 hr,triples
